Columns and labels:
Cannabinoid receptor 1 = Cannabinoid receptor 1 (Homo sapiens, UniProt P21554); assay type: functional
[1] = target: T1, Muscarinic acetylcholine receptor M2 (Homo sapiens, UniProt P08172)
T1 sequence (P08172 whole entry): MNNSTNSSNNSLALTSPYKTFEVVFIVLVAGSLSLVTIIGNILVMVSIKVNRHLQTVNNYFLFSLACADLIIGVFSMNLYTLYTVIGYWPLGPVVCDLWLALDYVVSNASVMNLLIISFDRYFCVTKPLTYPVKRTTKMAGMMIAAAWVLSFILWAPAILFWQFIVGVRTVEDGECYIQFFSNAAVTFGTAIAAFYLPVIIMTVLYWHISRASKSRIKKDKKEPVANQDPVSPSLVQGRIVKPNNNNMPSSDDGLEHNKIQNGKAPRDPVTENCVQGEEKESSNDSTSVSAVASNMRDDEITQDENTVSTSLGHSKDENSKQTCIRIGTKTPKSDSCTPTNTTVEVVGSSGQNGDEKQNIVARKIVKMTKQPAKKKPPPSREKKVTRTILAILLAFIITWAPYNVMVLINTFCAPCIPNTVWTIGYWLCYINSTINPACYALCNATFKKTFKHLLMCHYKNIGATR

Estrogen receptor beta = Estrogen receptor beta (Homo sapiens, UniProt Q92731)
Substance-P receptor = Substance-P receptor (Homo sapiens, UniProt P25103)
[2] = target: 5-hydroxytryptamine receptor 6 (Homo sapiens, UniProt P50406)
[3] = target: T2, Alpha-2A adrenergic receptor (Homo sapiens, UniProt P08913)
T2 sequence (P08913 whole entry): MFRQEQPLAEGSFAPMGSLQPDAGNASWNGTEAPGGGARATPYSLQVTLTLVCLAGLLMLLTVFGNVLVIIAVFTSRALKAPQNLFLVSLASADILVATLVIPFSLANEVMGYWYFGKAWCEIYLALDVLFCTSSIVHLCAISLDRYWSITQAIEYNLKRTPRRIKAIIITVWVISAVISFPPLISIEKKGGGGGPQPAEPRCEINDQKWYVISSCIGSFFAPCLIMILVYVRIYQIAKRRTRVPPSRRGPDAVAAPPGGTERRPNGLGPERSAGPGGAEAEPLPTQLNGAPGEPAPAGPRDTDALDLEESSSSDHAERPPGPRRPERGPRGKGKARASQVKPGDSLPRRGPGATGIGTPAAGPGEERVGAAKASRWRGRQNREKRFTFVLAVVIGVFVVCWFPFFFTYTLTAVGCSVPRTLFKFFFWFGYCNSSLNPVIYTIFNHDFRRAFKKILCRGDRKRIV

[4] = target: 5-hydroxytryptamine receptor 2B (Homo sapiens, UniProt P41595)
[5] = target: T3, Alpha-1A adrenergic receptor (Homo sapiens, UniProt P35348)
T3 sequence (P35348 whole entry): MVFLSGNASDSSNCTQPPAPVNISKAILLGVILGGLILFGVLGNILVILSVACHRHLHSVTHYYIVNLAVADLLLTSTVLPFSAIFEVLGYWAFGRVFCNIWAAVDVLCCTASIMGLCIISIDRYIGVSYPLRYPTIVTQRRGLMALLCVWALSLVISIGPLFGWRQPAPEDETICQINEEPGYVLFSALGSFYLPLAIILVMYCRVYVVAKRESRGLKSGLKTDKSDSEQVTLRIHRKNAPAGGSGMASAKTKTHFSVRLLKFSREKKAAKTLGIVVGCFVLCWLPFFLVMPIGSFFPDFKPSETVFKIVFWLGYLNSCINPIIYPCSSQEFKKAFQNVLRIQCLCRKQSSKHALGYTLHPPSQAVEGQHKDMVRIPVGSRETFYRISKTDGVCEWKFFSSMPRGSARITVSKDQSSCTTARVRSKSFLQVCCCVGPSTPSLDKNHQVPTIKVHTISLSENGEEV

[6] = target: 5-hydroxytryptamine receptor 7 (Homo sapiens, UniProt P34969)
Histamine H2 receptor = Histamine H2 receptor (Homo sapiens, UniProt P25021)
[7] = target: 5-hydroxytryptamine receptor 2A (Homo sapiens, UniProt P28223)
Androgen receptor = target: T4, Androgen receptor (Rattus norvegicus, UniProt P15207)
T4 sequence (P15207 whole entry): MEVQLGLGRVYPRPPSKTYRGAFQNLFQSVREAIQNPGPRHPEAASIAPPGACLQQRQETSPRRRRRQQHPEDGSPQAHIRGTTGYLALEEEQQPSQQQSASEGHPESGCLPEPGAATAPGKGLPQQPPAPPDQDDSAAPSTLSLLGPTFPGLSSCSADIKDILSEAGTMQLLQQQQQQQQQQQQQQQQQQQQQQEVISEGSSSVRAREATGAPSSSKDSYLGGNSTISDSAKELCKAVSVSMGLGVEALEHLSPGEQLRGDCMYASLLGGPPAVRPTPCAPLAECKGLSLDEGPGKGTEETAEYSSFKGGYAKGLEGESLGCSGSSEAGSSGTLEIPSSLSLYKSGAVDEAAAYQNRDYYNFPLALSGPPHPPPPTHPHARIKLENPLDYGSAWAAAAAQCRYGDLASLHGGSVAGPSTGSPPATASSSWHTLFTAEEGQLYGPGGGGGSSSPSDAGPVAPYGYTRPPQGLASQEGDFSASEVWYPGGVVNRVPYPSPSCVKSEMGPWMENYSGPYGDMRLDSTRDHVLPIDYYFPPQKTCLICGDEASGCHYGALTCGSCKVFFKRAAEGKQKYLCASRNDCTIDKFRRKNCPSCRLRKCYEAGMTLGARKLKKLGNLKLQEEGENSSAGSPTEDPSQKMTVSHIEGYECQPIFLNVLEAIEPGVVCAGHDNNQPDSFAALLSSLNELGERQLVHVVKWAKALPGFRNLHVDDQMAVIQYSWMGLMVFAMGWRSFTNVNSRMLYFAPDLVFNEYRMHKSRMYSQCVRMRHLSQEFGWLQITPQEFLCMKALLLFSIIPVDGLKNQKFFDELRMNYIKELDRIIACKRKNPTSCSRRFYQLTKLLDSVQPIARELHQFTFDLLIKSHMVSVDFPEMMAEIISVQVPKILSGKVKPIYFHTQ
Note: assay procedure not described here.

Cannabinoid receptor 1, sequence (P21554 whole entry): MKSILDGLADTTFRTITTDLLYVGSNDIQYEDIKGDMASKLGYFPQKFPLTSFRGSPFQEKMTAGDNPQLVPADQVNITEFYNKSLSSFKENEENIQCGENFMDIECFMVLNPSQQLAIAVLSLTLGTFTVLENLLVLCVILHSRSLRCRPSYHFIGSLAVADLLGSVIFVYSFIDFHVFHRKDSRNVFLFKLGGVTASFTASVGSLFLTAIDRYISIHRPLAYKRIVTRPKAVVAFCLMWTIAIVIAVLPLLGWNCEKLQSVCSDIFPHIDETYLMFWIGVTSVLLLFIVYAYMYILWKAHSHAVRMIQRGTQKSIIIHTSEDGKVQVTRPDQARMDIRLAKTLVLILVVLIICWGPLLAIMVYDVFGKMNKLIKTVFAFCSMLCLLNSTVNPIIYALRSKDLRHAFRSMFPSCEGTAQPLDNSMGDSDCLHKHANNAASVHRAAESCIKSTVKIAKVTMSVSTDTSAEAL
5-hydroxytryptamine receptor 2A, sequence (P28223 whole entry): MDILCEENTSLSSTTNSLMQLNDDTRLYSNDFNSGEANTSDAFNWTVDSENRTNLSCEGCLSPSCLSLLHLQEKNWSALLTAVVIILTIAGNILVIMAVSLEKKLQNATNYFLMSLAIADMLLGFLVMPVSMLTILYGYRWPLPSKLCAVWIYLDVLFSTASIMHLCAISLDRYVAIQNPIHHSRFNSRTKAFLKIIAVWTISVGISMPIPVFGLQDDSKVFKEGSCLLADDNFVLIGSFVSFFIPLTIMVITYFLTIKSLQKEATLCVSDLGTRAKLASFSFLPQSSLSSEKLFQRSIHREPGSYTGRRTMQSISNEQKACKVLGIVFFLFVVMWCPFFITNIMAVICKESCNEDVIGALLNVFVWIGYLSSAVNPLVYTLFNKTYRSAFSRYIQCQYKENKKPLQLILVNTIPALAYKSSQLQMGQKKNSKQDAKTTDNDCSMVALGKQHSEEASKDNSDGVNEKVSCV
5-hydroxytryptamine receptor 7, sequence (P34969 whole entry): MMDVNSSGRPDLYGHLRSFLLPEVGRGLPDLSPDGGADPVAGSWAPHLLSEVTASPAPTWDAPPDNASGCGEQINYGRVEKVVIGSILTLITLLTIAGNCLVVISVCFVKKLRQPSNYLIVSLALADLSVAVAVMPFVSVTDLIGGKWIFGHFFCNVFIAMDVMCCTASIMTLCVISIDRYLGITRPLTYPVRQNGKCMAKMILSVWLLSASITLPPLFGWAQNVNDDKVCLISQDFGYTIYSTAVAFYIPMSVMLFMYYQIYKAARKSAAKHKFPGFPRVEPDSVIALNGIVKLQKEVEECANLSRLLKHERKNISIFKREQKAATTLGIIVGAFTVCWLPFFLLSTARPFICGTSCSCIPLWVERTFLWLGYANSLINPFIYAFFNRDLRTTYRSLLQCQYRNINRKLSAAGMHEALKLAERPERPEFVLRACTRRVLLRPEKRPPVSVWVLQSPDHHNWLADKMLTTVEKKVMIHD
Estrogen receptor beta, sequence (Q92731 whole entry): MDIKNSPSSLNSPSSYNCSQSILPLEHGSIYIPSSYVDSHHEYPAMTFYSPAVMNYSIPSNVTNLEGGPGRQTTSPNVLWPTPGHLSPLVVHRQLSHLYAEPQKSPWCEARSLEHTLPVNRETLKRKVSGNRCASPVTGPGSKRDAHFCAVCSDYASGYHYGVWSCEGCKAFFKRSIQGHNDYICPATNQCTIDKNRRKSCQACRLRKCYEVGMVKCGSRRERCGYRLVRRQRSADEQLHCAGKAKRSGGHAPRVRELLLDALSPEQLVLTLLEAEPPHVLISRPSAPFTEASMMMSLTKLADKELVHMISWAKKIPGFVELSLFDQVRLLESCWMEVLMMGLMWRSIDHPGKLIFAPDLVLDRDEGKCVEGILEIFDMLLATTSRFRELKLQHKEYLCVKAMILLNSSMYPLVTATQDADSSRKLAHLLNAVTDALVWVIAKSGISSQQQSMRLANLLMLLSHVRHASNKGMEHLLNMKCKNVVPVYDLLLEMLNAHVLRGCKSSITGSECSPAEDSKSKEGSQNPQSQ
Substance-P receptor, sequence (P25103 whole entry): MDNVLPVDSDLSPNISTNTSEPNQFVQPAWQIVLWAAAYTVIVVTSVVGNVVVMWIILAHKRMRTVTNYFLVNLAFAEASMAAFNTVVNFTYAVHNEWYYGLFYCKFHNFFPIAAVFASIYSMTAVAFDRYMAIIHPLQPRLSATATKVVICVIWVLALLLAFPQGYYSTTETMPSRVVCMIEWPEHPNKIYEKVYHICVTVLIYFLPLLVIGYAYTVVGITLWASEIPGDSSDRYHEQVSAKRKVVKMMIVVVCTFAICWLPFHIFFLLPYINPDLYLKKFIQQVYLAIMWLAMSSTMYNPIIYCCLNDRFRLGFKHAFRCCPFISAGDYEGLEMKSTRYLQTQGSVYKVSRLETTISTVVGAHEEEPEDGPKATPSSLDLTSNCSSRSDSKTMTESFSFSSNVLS
Histamine H2 receptor, sequence (P25021 whole entry): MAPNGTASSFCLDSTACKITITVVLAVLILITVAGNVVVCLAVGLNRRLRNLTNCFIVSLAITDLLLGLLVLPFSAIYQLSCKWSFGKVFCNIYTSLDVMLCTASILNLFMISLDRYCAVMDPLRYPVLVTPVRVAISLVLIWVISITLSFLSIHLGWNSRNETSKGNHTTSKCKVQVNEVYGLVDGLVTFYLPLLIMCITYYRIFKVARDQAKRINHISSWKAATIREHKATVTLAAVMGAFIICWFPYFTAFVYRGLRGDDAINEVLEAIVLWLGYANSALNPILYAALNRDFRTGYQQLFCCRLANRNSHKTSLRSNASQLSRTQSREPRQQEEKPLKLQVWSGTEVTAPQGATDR
5-hydroxytryptamine receptor 6, sequence (P50406 whole entry): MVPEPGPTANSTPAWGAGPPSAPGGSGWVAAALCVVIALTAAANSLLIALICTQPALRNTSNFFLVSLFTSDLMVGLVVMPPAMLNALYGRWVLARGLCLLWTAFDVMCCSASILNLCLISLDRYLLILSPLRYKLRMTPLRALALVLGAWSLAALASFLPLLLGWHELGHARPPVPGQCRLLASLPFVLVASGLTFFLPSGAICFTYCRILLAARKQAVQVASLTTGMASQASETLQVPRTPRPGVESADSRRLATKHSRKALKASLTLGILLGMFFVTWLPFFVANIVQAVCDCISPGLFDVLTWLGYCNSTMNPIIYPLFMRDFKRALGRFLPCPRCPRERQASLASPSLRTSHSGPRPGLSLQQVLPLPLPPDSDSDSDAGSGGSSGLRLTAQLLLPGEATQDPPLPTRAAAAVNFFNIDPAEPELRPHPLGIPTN
5-hydroxytryptamine receptor 2B, sequence (P41595 whole entry): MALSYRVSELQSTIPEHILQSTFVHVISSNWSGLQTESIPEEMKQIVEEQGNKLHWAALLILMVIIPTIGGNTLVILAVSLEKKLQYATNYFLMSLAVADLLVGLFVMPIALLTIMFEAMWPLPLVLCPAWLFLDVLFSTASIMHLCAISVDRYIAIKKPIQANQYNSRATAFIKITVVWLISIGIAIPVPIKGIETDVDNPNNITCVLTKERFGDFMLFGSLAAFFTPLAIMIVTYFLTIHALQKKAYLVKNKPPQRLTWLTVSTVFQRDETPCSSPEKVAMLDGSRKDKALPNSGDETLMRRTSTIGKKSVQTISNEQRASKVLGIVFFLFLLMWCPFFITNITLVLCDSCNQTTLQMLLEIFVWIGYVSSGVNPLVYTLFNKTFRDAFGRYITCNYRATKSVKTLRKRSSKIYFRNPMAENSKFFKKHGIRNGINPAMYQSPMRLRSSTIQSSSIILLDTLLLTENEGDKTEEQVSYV

SMILES | AC50 [1] [µM] | AC50 (Estrogen receptor beta) [µM] | AC50 (Substance-P receptor) [µM] | AC50 [3] [µM] | AC50 [4] [µM] | AC50 [5] [µM] | AC50 (Histamine H2 receptor) [µM] | AC50 [7] [µM] | AC50 (Androgen receptor) [µM] | further results
CN(C)CCCN1c2ccccc2Sc2ccccc21 [PROMAZINE] | 0.999 | > 30 | > 10 | 5 | 0.192 | 0.0138 | 0.111 |  |  | AC50 (Cannabinoid receptor 1): > 10 µM; AC50 [2]: 0.242 µM; AC50 [6]: 2.16 µM
O=C(Nc1ccccc1)OCC(CN1CCCCC1)OC(=O)Nc1ccccc1 (stereo not given) [DIPERODON] | > 10 | > 30 | > 10 | > 10 | 1.96 | > 10 | > 10 | > 10 |  | AC50 (Cannabinoid receptor 1): > 10 µM; AC50 [2]: > 10 µM; AC50 [6]: > 10 µM
O=C(O)c1cccc(-c2noc(-c3ccccc3F)n2)c1 |  |  |  |  |  |  |  | > 10 |  | 
CC(=O)N(CC(O)CO)c1c(I)c(C(=O)NCC(O)CO)c(I)c(C(=O)NCC(O)CO)c1I (stereo not given) [IOHEXOL] |  |  |  |  |  |  |  | > 10 |  | 
O=P(O)(O)C(O)(Cc1cccnc1)P(=O)(O)O [RISEDRONIC ACID] |  |  | > 10 | > 10 | > 10 | > 10 | > 10 |  |  | AC50 (Cannabinoid receptor 1): > 10 µM; AC50 [2]: > 10 µM; AC50 [6]: > 10 µM
C=C1C[C@@H]2[C@H](CC[C@]3(C)C(=O)CC[C@@H]23)[C@@]2(C)C=CC(=O)C=C12 [EXEMESTANE] | > 10 | > 30 |  |  |  |  |  | 6.96 |  | 
CC(C)(N)Cc1ccc(Cl)cc1 [CHLORPHENTERMINE] | > 10 |  |  | > 10 | 3 |  | > 10 | 9.06 |  | 
O=C1CCC(N2C(=O)c3ccccc3C2=O)C(=O)N1 (stereo not given) [THALIDOMIDE] | > 10 | > 30 | > 10 | > 10 | > 10 | > 10 | > 10 |  |  | 
CC(=O)N[C@H]1[C@H]([C@H](O)[C@H](O)CO)OC(C(=O)O)=C[C@@H]1N=C(N)N [ZANAMIVIR] |  |  |  |  |  |  |  |  | > 30 | 
CN(C)[C@@H]1C(O)=C(C(N)=O)C(=O)[C@@]2(O)C(O)=C3C(=O)c4c(O)ccc(Cl)c4[C@@H](O)[C@H]3C[C@@H]12 [DEMECLOCYCLINE] |  |  |  |  |  |  |  |  | 2.6 | 
C[N+](C)(C)CCOC(N)=O [CARBAMOYLCHOLINE] |  |  |  |  |  |  |  |  | > 10 | 
CC(C)NCC1CCc2cc(CO)c([N+](=O)[O-])cc2N1 (stereo not given) [OXAMNIQUINE] |  |  |  |  |  |  |  |  | > 10 | 

— ChEMBL document CHEMBL5291721, “A preclinical secondary pharmacology resource illuminates target-adverse drug reaction associations of marketed drugs” (Nat Commun, 2023)
